Data published in patent US9346854B2, “Anti-inflammatory peptides and use thereof” (Yeda Research and Development Co. Ltd., priority 2012, dated 2016).
“Also recorded” adds a separate entry of the source. Read-outs that look alike come from different tables or passages of the source. No end group written: not given here.

What was measured:
RAW264.7 macrophages = format: cell-based, murine; conditions: for IC50: 2 h; for LC50 (cytotoxicity): toxicity, XTT, 2 hours incubation (method: LC50), read-out: IC50 macrophages RAW264.7
Experimental: (§1) All in vitro assays were performed on RAW264.7 murine macrophages (ATCC-TIB71). Cells were grown in DMEM supplemented with 10% FBS, L-glutamine, sodium pyruvate, non-essential amino acids and antibiotics (Biological Industries, Beit Haemek, Israel). Incubator was set on 37° C. with a humidified atmosphere containing 5% CO2.
1×10^4 cells per well were grown overnight on a 96-well plate. The following day, the media were replaced with 90 μl fresh culture medium and 10 μl solution buffer containing different concentrations of the different peptides. Peptide concentrations ranged from 0.78-100 μM. The cells were then incubated for 2 hours before adding to each well 50 μl of 2,3-bis-2H-tetrazolium-5-carboxanilide inner salt (XTT) reaction solution (Biological Industries). Viability was determined as described previously (Makovitzki et al. Cancer Res 69, 3458-63, 2009; Papo et al. 2006). The LC50 (the concentration at which 50% of the cells die) for each peptide was obtained from the dose-dependent cell viability curves.

E. coli 25922 = format: cell-based
Experimental: (§2) The antibacterial activity of the peptides was examined in sterile 96-well plates (Nunc F96 microtiter plates) in a final volume of 100 μl, as follows. Aliquots (50 μl) of a suspension containing bacteria at a concentration of 10^6 colony-forming units/ml in culture medium (LB medium) were added to 50 μl of peptide serially diluted in culture medium (100 μM-0.78 μM). Inhibition of growth was determined by eye after an incubation of 18-20 h at 37° C. Antibacterial activities were expressed as the minimal inhibitory concentration, the concentration at which 100% inhibition of growth was observed after 18-20 h of incubation. In these the effect of the peptides on E. coli (ATCC:25922) and S. aureus (ATCC:6538P) was tested.

S. aureus 6538P = format: cell-based
Experimental: as §2

RBL cells = format: cell-based, rat
[1] = LPS binding assay with NBD-labeled peptides; conditions: NBD-labeled peptide affinity to LPS
Experimental: NBD-labeled peptides (50 μl, 2 μM, PBS^−/− 2% DMSO) were added to different concentrations of LPS (50 μl PBS^−/−) in a opaque black 96 well plate. After 10 minutes of incubation at room temperature, the fluorescence was measured using an excitation of 467 nm and emission of 530 nm. The data were plotted and Kd and Bmax values obtained using NLLSQ analysis.

RBL-2H3 cells = assay: IgE and DNP-BSA mediated degranulation (β-hexoseaminidase release); format: cell-based, rat; conditions: for Inhibition of Degranulation (%): peptide concentration 20 μM, derived from FIG. 9A
Experimental: In order to study the specific effect of the peptides of the invention on direct IgE mediated degranulation, the rat basophilic cell line (RBL-2H3) was used. This cell line expresses high levels of surface IgE receptor that binds IgE with high affinity (FcεRI). Upon adding an allergen (IgE antigen) there is a cross-linking of adjacent FcεRs that results in degranulation and release of histamine. Degranulation was measured as release of intracellular β-hexoseaminidase (Nunomura et al., Int Immunol 17, 685-94, 2005).
In this assay system, RBL cells were incubated with the DNP-specific murine monoclonal IgE SPE7 (Eshhar et al., J Immunol 124:775, 1980) for 2.5 hours. The cells were washed and centrifuged and then further incubated with the DNP-BSA antigen that crossed-link the FcεRI bound IgE. Next, extracellular hexoseaminidase levels were evaluated by their ability to hydrolyze the 4-nitrophenyl-N-acetyl-β-D-glucosaminide substrate which results in the accumulation of a colored product. The tested peptides (see Table 5) were added at different concentrations and stages of the assay and tested for their ability to inhibit this reaction.
In the first set of experiments, RBLs were incubated with different concentrations of the (AL)6AK2 peptide or irrelevant control peptide (alpha subunit peptide) in the presence of IgE. Following incubation, the cells were washed and DNP10-BSA with peptide was added to crosslink adjacent FcεRI (FIG. 6). Following incubation, the cells were washed and suspended in the degranulation medium for either 30 (FIG. 6A) or 60 min. (FIG. 6B).

TLR4 activation by LPS = assay: TNFα secretion by RAW264.7 macrophages stimulated with LPS; format: cell-based, murine; conditions: for inhibition of LPS activation of macrophages (TNFα secretion), in words: LPS 10 ng/ml, peptide 20 μM (FIGS. 1A, 2)
Experimental: as §1
(§3) 2×10^5 cells per well were cultured overnight in a 96-wells plate. The following day, the media were replaced by fresh DMEM, including all supplements. Peptides were dissolved in DMSO and added to the cells in different concentrations. Final concentration of DMSO was 1% for all groups. Cells were incubated with the peptide for 2 hours, then LPS (TLR4 activator) or LTA (TLR2 activator) was added to the cells at 10 ng/ml or 500 ng/ml, respectively. The cells were further incubated for 5 hrs at 37° C., after which samples of the media from each treatment were collected and stored at −20° C. TNFα concentration in each sample was evaluated using a mouse TNFα enzyme-linked immunosorbent assay kit (Biosource™ ELISA, Invitorgen), according to the manufacturer's protocol. All experiments were done in triplicates.

Balb/c mice = assay: Antigen (OVA) induced anaphylactic shock; format: in vivo; conditions: for Survival of anaphylactic shock (%): i.v. 10-15 mg/kg, 30-45 minutes prior to soluble OVA challenge
Experimental: The inhibitory capacity of the Kn(AL)nKn peptides was tested in the most rigorous manner for inhibition of otherwise fatal anaphylaxis. In this model, Balb/c mice were immunized by an i.p. injection of 100 μg OVA in 5 mg Alum and 1.5 μg pertusis, a protocol that favors IgE-type of response. Three weeks later the immunized mice received an i.v. injection of soluble OVA (3.5-5 μg), resulting in a rapid and aggressive anaphylactic shock. In this specific model, the immunized mice die within 10-20 minutes after the systemic (i.v.) OVA injection.
To test the ability of the peptides of the invention to inhibit anaphylactic shock formation, an i.v. injection of the K2(AL)8K2 peptide at 10-15 mg/kg was administered, 30-45 minutes prior to the soluble OVA challenge. Strikingly, this single injection rescued 87% of the sensitized mice (Table 7). […] In several mice that were protected by the K2(AL)8K2 peptide, the protection lasted for at least 2 days. Peptide treated mice died of anaphylactic shock only after systemic injection of a very high dose of OVA. Still, the exact conditions for optimum protective activity need to be validated.

C57BL mice = assay: In vivo toxicity in mice; conditions: 100 mg/kg i.p.
Experimental: Toxicity was tested by intraperitoneal injection of K2(AL)8K2 (100 mg/kg in 400 μl saline) in female C57B1 mice (n=2). Mice were continuously observed for 1 hour immediately following injection and once per day for 7 days. To examine the effect of our peptides on acute septic shock driven by LPS hyperactivation of TLR4 we have used murine models as described before (Zheng et al. Int Immunopharmacol 10, 1209-19, 2010; Arima et al, 2005). Briefly, 12 weeks old C57 Black female mice were treated with 100 ng of LPS injected IP in a saline solution (200 μl, pH 6.5) containing 200 mg/ml of D-galactosamine (Calbiochem). Treated mice received one IP injection of 10 mg/kg peptide dissolved in saline (200 μl) following the LPS injection. In the second model heat-killed bacteria were used to induce a lethal septic shock. E. coli cells were grown to a mid log phase (OD=0.5) at 37° C., cooled on ice, and centrifuged at 3500 rpm for 10 minutes at 4° C. The cells were re-suspended in saline for a concentration of 2×10^9 cells in 200 μl and heated at 95° C. for 30 minutes. Each animal received an IP injection of 2×10^9 cells in 200 μl saline followed by injection of 10 mg/kg peptide dissolved in saline (200 μl). Animals were monitored for survival and for signs of sepsis for the next 14 days after LPS injection. Peptides used as the acetic acid salts for in vivo experiments. […]

TLR2 activation by LTA = assay: TNFα secretion by RAW264.7 macrophages stimulated with LTA; format: cell-based, murine; conditions: LTA 500 ng/ml; peptide 20 μM (FIG. 1A)
Experimental: as §1, §3

[2] = 100% inhibition of growth after 18-20 h

Substance | IC50 (RAW264.7 macrophages) | MIC E. coli 25922 (E. coli 25922; 25922) | MIC S. aureus 6538P (S. aureus 6538P; 6538P) | Kd [1] | also measured
ALALALALALALAKK-NH2 [(AL)6AK2, ALALALALALALAKK] | > 100 µM | >100 µM | >100 µM | – | killing or growth inhibition of RBL cells (RBL cells): did not kill or inhibited the growth
ALALALALALALALALALKK [4D-(AL)9K2] | – | – | – | – | LC50 (cytotoxicity) (RAW264.7 macrophages): 50 µM; MIC E. coli 25922 (E. coli 25922; [2]): >100 µM; MIC S. aureus 6538P (S. aureus 6538P; [2]): >100 µM
ALALALALALALALALALKK-NH2 [(AL)9K2] | > 100 µM | >100 µM | >100 µM | 4.4 µM | Inhibition of Degranulation (%) (RBL-2H3 cells): 30%
ALALALALALALALK-NH2 [(AL)7K] | – | – | – | – | LC50 (cytotoxicity) (RAW264.7 macrophages): > 100 µM; MIC E. coli 25922 (E. coli 25922; [2]): >100 µM; MIC S. aureus 6538P (S. aureus 6538P; [2]): >100 µM
KALALALALALALAK-NH2 [K(AL)6AK] | > 100 µM | >100 µM | >100 µM | – | –
KALALALALALALALALALK-NH2 [K(AL)9K] | > 100 µM | >100 µM | >100 µM | – | –
KALALALKALALKALALALK-NH2 [K(AL)3K(AL)2K(AL)3K] | 25 µM | 25 µM | 12.5 µM | 9.6 µM | inhibition of LPS activation of macrophages (TNFα secretion), in words (TLR4 activation by LPS): highly active
KKALALALALALAKK-NH2 [K2(AL)5AK2, KKALALALALALAKK] | > 100 µM | >100 µM | >100 µM | 2.7 µM | inhibition of LPS activation of macrophages (TNFα secretion), in words (TLR4 activation by LPS): lower activity; inhibition (LPS neutralization) (TLR4 activation by LPS; peptide 20 μM): 50%
KKALALALALALALALALALALAKK [K2(AL)10AK2] | – | – | – | – | Survival of anaphylactic shock (%) (Balb/c mice): 50%
KKALALALALALALALALKK [4D-K2(AL)8K2] | – | – | – | 15.6 µM | LC50 (cytotoxicity) (RAW264.7 macrophages): > 100 µM; MIC E. coli 25922 (E. coli 25922; [2]): 100 µM; MIC S. aureus 6538P (S. aureus 6538P; [2]): 100 µM
KKALALALALALALALALKK-NH2 [K2(AL)8K2] | > 100 µM | >100 µM | >100 µM | – | adverse effects in vivo (C57BL mice): not adversely affected
KKALALALKK-NH2 [K2(AL)3K2, KKALALALKK] | > 100 µM | >100 µM | >100 µM | 10 to 15 µM | inhibition of LPS activation of macrophages (TNFα secretion), in words (TLR4 activation by LPS): inactive
KKAVAVAVAVAVAVAVAVKK-NH2 [K2(AV)8K2] | 90 µM | >100 µM | >100 µM | – | inhibition of LPS activation of macrophages (TNFα secretion), in words (TLR4 activation by LPS): medium inhibition; also recorded: lower activity; inhibition of LTA activation of macrophages (TNFα secretion), in words (TLR2 activation by LTA): good inhibition
LALALALALALALALALALK-NH2 [L(AL)9K] | – | – | – | – | LC50 (cytotoxicity) (RAW264.7 macrophages): > 100 µM; MIC E. coli 25922 (E. coli 25922; [2]): >100 µM; MIC S. aureus 6538P (S. aureus 6538P; [2]): >100 µM; inhibition of IgE/DNP-BSA degranulation, in words (RBL-2H3 cells): no inhibition; Inhibition of Degranulation (%) (RBL-2H3 cells): 0%; Survival of anaphylactic shock (%) (Balb/c mice): 0%; protection from anaphylactic shock, in words (Balb/c mice; mouse, in vivo): failed also to give any protection
